Experimental data taken from patent US10519177B2, “Heterocyclic compounds and uses thereof” (Plexxikon Inc., priority 2013, dated 2019).
Like-named read-outs stand apart in the source and are kept apart here.

Key:
BRD4-BD12 (1-477) = BRD4-BD12 (1-477) (Homo sapiens (Human), UniProt O60885); experiment: Alphascreen binding assay BRD4-BD12; conditions: BRD4(1 2) H4; read-out: Biochemical activity (IC50 μM) BRD4(1 2) H4
Method in brief: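 First, compound was preincubated 1 h at room temperature with the His-tagged BRD4 protein (BD1 44-164 or tandem BD12 1-477) and acetylated H4 peptide. Next, donor and acceptor beads were added at 7.5 μg/ml final. After 30 min, AlphaScreen emission was recorded.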

MV-4-11 cells = experiment: Oncology cell growth assay MV-4-11 (CellTiter Glo); assay type: cell-based; conditions: Homo sapiens, MV4-11, 72 h, read-out: Cell activity (IC50 μM) MV-4-11 3d-Growth
Method in brief: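 MV-4-11 AML cells (MLL-AF4), 3000 per well, exposed to 8-point 1:3 compound titration from 10 μM top concentration (0.2% DMSO) for 72 h. Viability by CellTiter Glo luminescence, normalized to DMSO controls; pIC50 from four-parameter curve fit.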

bromodomain = experiment: at least one of the bromodomain cell assays of Example 57; assay type: cell-based; conditions: at least one of the bromodomain cell assays described in Example 57; read-out: IC50 in at least one of the bromodomain cell assays

| SMILES | IC50 (BRD4-BD12 (1-477)) | IC50 (MV-4-11 cells; MV-4-11, 3d growth) | IC50 (bromodomain) | IC50 (MV-4-11 cells) |
| --- | --- | --- | --- | --- |
| Cc1noc(C)c1-c1cnc2c(I)cn(Cc3cccnn3)c2c1 [P-0528, 4-[3-iodo-1-(pyridazin-3-ylmethyl)pyrrolo[3,2-b]pyridin-6-yl]-3,5-dimethyl-isoxazole] | < 1 µM | < 1 µM | < 10000 nM |  |
| [2H]C([2H])(C1CCC(F)(F)CC1)n1cc(-c2ccc(N)nc2)c2ncc(-c3c(C)noc3C)cc21 [P-0347, 5-[1-[dideuterio-(4,4-difluorocyclohexyl)methyl]-6-(3,5-dimethylisoxazol-4-yl)pyrrolo[3,2-b]pyridin-3-yl]pyridin-2-amine] | < 1 µM |  | < 10000 nM | < 1 µM |
| CNC(=O)c1ccc(-c2cn(CC3CCC(F)(F)CC3)c3cc(-c4c(C)noc4C)cnc23)cc1 [P-0403, 4-[1-[(4,4-difluorocyclohexyl)methyl]-6-(3,5-dimethylisoxazol-4-yl)pyrrolo[3,2-b]pyridin-3-yl]-N-methyl-benzamide] | < 1 µM |  | < 10000 nM | < 1 µM |
| Cc1noc(C)c1-c1cnc2c(-c3ccc(C(=O)NC4CC4)nc3)cn(CC3CCC(F)(F)CC3)c2c1 [P-0536, N-cyclopropyl-5-[1-[(4,4-difluorocyclohexyl)methyl]-6-(3,5-dimethylisoxazol-4-yl)pyrrolo[3,2-b]pyridin-3-yl]pyridine-2-carboxamide] | < 1 µM | < 1 µM | < 10000 nM |  |
| Cc1noc(C)c1-c1cnc2c(-c3cnn(C(F)F)c3)cn([C@H](C)c3ccc(F)cc3)c2c1 [P-0352, 4-[3-[1-(difluoromethyl)pyrazol-4-yl]-1-[(1R)-1-(4-fluorophenyl)ethyl]pyrrolo[3,2-b]pyridin-6-yl]-3,5-dimethyl-isoxazole] | < 1 µM |  | < 10000 nM | < 1 µM |
| COC(=O)c1ccc(-c2cn(CC3(F)CCC(F)(F)CC3)c3cc(-c4c(C)noc4C)cnc23)cn1 [P-0454, methyl 5-[6-(3,5-dimethylisoxazol-4-yl)-1-[(1,4,4-trifluorocyclohexyl)methyl]pyrrolo[3,2-b]pyridin-3-yl]pyridine-2-carboxylate] | < 1 µM | < 1 µM | < 10000 nM |  |
| Cc1noc(C)c1-c1cnc2c(-c3ccc([N+](=O)[O-])nc3)cn(CC3CCCCC3)c2c1 [P-0710, 4-[1-(cyclohexylmethyl)-3-(6-nitro-3-pyridyl)pyrrolo[3,2-b]pyridin-6-yl]-3,5-dimethyl-isoxazole] | < 1 µM | < 1 µM | < 10000 nM |  |
| CCNC(=O)Nc1ccc(-c2cn(CC3CCC(F)(F)CC3)c3cc(-c4c(C)noc4C)cnc23)cn1 [P-0584, 1-[5-[1-[(4,4-difluorocyclohexyl)methyl]-6-(3,5-dimethylisoxazol-4-yl)pyrrolo[3,2-b]pyridin-3-yl]-2-pyridyl]-3-ethyl-urea] | < 1 µM | < 1 µM | < 10000 nM |  |
| COc1ccc(-c2cn(CC3CCC(F)(F)CC3)c3cc(-c4c(C)noc4C)cnc23)cn1 [P-0390, 4-[1-[(4,4-difluorocyclohexyl)methyl]-3-(6-methoxy-3-pyridyl)pyrrolo[3,2-b]pyridin-6-yl]-3,5-dimethyl-isoxazole] | < 1 µM |  | < 10000 nM | < 1 µM |
| [2H]C([2H])(C1CCC(F)(F)CC1)n1cc(-c2cccnc2)c2ncc(-c3c(C)noc3C)cc21 [P-0340, 4-[1-[dideuterio-(4,4-difluorocyclohexyl)methyl]-3-(3-pyridyl)pyrrolo[3,2-b]pyridin-6-yl]-3,5-dimethyl-isoxazole] | < 1 µM |  | < 10000 nM | < 1 µM |
| COC(=O)c1ccc(-c2cn([C@H](C)c3ccccn3)c3cc(-c4c(C)noc4C)cnc23)cc1 [P-0508, methyl 4-[6-(3,5-dimethylisoxazol-4-yl)-1-[(1R)-1-(2-pyridyl)ethyl]pyrrolo[3,2-b]pyridin-3-yl]benzoate] | < 1 µM | < 1 µM | < 10000 nM |  |
| Cc1noc(C)c1-c1cnc2c(-c3csc(C(=O)O)c3)cn(CC3CCC(F)(F)CC3)c2c1 [P-0484, 4-[1-[(4,4-difluorocyclohexyl)methyl]-6-(3,5-dimethylisoxazol-4-yl)pyrrolo[3,2-b]pyridin-3-yl]thiophene-2-carboxylic acid] | < 1 µM | < 1 µM | < 10000 nM |  |
| COC(=O)c1ccc(-c2cn([C@@H](C)c3ccccc3)c3cc(-c4c(C)noc4C)cnc23)cc1 [P-0559, methyl 4-[6-(3,5-dimethylisoxazol-4-yl)-1-[(1S)-1-phenylethyl]pyrrolo[3,2-b]pyridin-3-yl]benzoate] | < 1 µM | < 1 µM | < 10000 nM |  |
| Cc1noc(C)c1-c1cnc2c(-c3ccc(CC(=O)O)cc3)cn(CC3CCCCC3)c2c1 [P-0590, 2-[4-[1-(cyclohexylmethyl)-6-(3,5-dimethylisoxazol-4-yl)pyrrolo[3,2-b]pyridin-3-yl]phenyl]acetic acid] | < 1 µM | < 1 µM | < 10000 nM |  |
| Cc1noc(C)c1-c1cnc2c(-c3cnn(CC(F)(F)F)c3)cn(Cc3ncccn3)c2c1 [P-0353, 3,5-dimethyl-4-[1-(pyrimidin-2-ylmethyl)-3-[1-(2,2,2-trifluoroethyl)pyrazol-4-yl]pyrrolo(3,2-b]pyridin-6-yl]isoxazole] | < 1 µM |  | < 10000 nM | < 1 µM |
| Cc1nnn(C)c1-c1cnc2c(-c3ccc(C(=O)O)cc3)cn(CC3(F)CCC(F)(F)CC3)c2c1 [P-0373, 4-[6-(3,5-dimethyltriazol-4-yl)-1-[(1,4,4-trifluorocyclohexyl)methyl]pyrrolo[3,2-b]pyridin-3-yl]benzoic acid] | < 1 µM |  | < 10000 nM | < 1 µM |
| COC(=O)CCc1ccc(-c2cn(CC3CCC(F)(F)CC3)c3cc(-c4c(C)noc4C)cnc23)cc1 [P-0529, methyl 3-[4-[1-[(4,4-difluorocyclohexyl)methyl]-6-(3,5-dimethylisoxazol-4-yl)pyrrolo[3,2-b]pyridin-3-yl]phenyl]propanoate] | < 1 µM | < 1 µM | < 10000 nM |  |
| CCOC(=O)c1ccc(-c2cn([C@@H](C)c3ccccn3)c3cc(-c4c(C)noc4C)cnc23)cc1 [P-0542, ethyl 4-[6-(3,5-dimethylisoxazol-4-yl)-1-[(1S)-1-(2-pyridyl)ethyl]pyrrolo[3,2-b]pyridin-3-yl]benzoate] | < 1 µM | < 1 µM | < 10000 nM |  |
| [2H]C([2H])(C1CCC(F)(F)CC1)n1cc(-c2cnc(N)cn2)c2ncc(-c3c(C)noc3C)cc21 [P-0364, 5-[1-[dideuterio-(4,4-difluorocyclohexyl)methyl]-6-(3,5-dimethylisoxazol-4-yl)pyrrolo[3,2-b]pyridin-3-yl]pyrazin-2-amine] | < 1 µM |  | < 10000 nM | < 1 µM |
| Cc1noc(C)c1-c1cnc2c(-c3ccc([N+](=O)[O-])nc3)cn(CC3CCC(F)(F)CC3)c2c1 [P-0599, 4-[1-[(4,4-difluorocyclohexyl)methyl]-3-(6-nitro-3-pyridyl)pyrrolo[3,2-b]pyridin-6-yl]-3,5-dimethyl-isoxazole] | < 1 µM | < 1 µM | < 10000 nM |  |
| Cc1noc(C)c1-c1cnc2c(-c3cc(C(=O)O)cs3)cn(CC3CCC(F)(F)CC3)c2c1 [P-0486, 5-[1-[(4,4-difluorocyclohexyl)methyl]-6-(3,5-dimethylisoxazol-4-yl)pyrrolo[3,2-b]pyridin-3-yl]thiophene-3-carboxylic acid] | < 1 µM | < 1 µM | < 10000 nM |  |
| Cc1noc(C)c1-c1cnc2c(c1)c(CC1CCC(F)(F)CC1)cn2-c1ccc(C(=O)O)cc1F [P-0442, 4-[3-[(4,4-difluorocyclohexyl)methyl]-5-(3,5-dimethylisoxazol-4-yl)pyrrolo[2,3-b]pyridin-1-yl]-3-fluoro-benzoic acid] | < 1 µM | < 1 µM | < 10000 nM |  |
| Cc1noc(C)c1-c1cnc2c(-c3cnn(C(F)F)c3)cn(CC3(F)CCC(O)CC3)c2c1 (stereo not drawn) [P-0261, 4-[[3-[1-(difluoromethyl)pyrazol-4-yl]-6-(3,5-dimethylisoxazol-4-yl)pyrrolo[3,2-b]pyridin-1-yl]methyl]-4-fluoro-cyclohexanol] | < 1 µM |  | < 10000 nM | < 1 µM |
| Cc1noc(C)c1-c1cnc2c(-c3ccc(C#N)cc3)cn(CC3CCC(F)(F)CC3)c2c1 [P-0434, 4-[1-[(4,4-difluorocyclohexyl)methyl]-6-(3,5-dimethylisoxazol-4-yl)pyrrolo[3,2-b]pyridin-3-yl]benzonitrile] | < 1 µM | < 1 µM | < 10000 nM |  |
| Cc1noc(C)c1-c1cnc2c(-c3ccc(=O)n(C)c3)cn(CC3(F)CCCCC3)c2c1 [P-0471, 5-[6-(3,5-dimethylisoxazol-4-yl)-1-[(1-fluorocyclohexyl)methyl]pyrrolo[3,2-b]pyridin-3-yl]-1-methyl-pyridin-2-one] | < 1 µM | < 1 µM | < 10000 nM |  |
| Cc1noc(C)c1-c1cnc2c(c1)c(Cc1ccccc1Cl)cn2-c1ccc(C(=O)O)cn1 [P-0428, 6-[3-[(2-chlorophenyl)methyl]-5-(3,5-dimethylisoxazol-4-yl)pyrrolo[2,3-b]pyridin-1-yl]pyridine-3-carboxylic acid] | < 1 µM | 1 to 10 µM | < 10000 nM |  |
| Cc1noc(C)c1-c1cnc2c(I)cn(C(CC#N)C3CCCC3)c2c1 (stereo not drawn) [P-0251, 3-cyclopentyl-3-[6-(3,5-dimethylisoxazol-4-yl)-3-iodo-pyrrolo[3,2-b]pyridin-1-yl]propanenitrile] | < 1 µM |  | < 10000 nM | < 1 µM |
